Experimental data reported in paper PMC5884648, “Relationship between the agonist activity of synthetic ligands of TRAIL-R2 and their cell surface binding modes” (Oncotarget, 2018).
*1 amine or outer side, *2 acyl side, *3 side chain or, on linkers, in order; H or OH if unused. Where a SMILES comes first, the peptide text is derived from it. Bridges are numbered along the chain shown (N, C = ends). Roman numbers before positions name the chains, in order. The star is where a group is joined. X1 = CN(CCCC(=O)NC(CCC(=O)[*:1])CCC(=O)[*:2])C(=O)c1ccccc1-c1c2ccc(=N)c(S(=O)(=O)O)c-2oc2c(S(=O)(=O)O)c(N)ccc12; X3 = N=c1ccc2c(-c3cc(C(=O)*)ccc3C(=O)O)c3ccc(N)c(S(=O)(=O)O)c3oc-2c1S(=O)(=O)O

Experiments:
human TRAIL-R2 = biological target: T1, human TRAIL-R2 (Homo sapiens, UniProt O14763); test: Surface plasmon resonance on sensor-immobilized TRAIL-R2; assay type: binding; conditions: SPR, 25° C, Langmuir model
T1 construct: purchased Enzo Life Sciences
Protocol: SPR assays were performed on a Biacore T200™, at 25° C. The running buffer was HBS-EP [10 mM HEPES (pH 7.4) containing 0.15 M NaCl, 3.4 mM EDTA and 0.005% (v/v) Tween P20]. The human TRAIL-R2 (Enzo Life Sciences, Farmingdale, NY, USA) receptor was immobilized on a sCM5 sensor chip (GE Healthcare) using the standard amine coupling procedure. The receptors were diluted in 10 mM acetate buffer (pH 5.0) at a concentration of 5 μg/mL. The TRAIL-R2 immobilization level on the sensor chip was 430 RU. Peptides were injected at a flow rate of 5 μL/min for 120 s and allowed to dissociate for an additional 420 s. Surfaces were then regenerated for 5 s with 25 mM HCl. All binding curves were double-referenced (i.e. subtraction of the data of the empty flow cell followed by the subtraction of the data from a running buffer injection cycle).
(§1) Double-referenced SPR binding curves sets were fitted globally using the BIAevaluation 4.1.1 (GE Healthcare Biacore) or TraceDrawer (Ridgeview Diagnostics AB, Uppsala, Sweden) softwares. The signal recorded with the LigandTracer on an empty spot or slide was subtracted from that recorded on cell-carrying slides. The resulting binding curves were analyzed by kinetic distribution analysis using the tool Interaction Map (Ridgeview Diagnostics AB, Uppsala, Sweden). Interaction Map decomposes the kinetic curve recorded for the binding of a homogeneous ligand to a heterogeneous group of targets into its different components. Results are represented as interaction maps (kon versus koff, log scale), where the color of each populated area represents its degree of contribution to the kinetic curve (red = high contribution, blue = low contribution).

BJAB cells = test: Cell viability MTS assay, BJAB; assay type: cell-based, human; conditions: 24 hours
Protocol: (§2) BJAB, Jurkat and HCT116 cells (10^5 cells/well) were cultured in 100 µL of culture medium in 96-flat bottom well plates. The next day, cells were treated with the indicated concentrations of the different TRAILmin/DR5 peptides. After 24 hours of treatment cell viability measurement was performed by the MTS assay according to the manufacturer specification (Promega Corporation, Madison, WI, USA).

HCT116 cells = test: Cell viability MTS assay, HCT116; assay type: cell-based, human; conditions: 24 hours
Protocol: as §2

[1] = biological target: T2, TRAIL-R2 expressed on HCT116 cells (Homo sapiens, UniProt O14763); test: LigandTracer real time binding on living HCT116 cells; conditions: HCT116 cells expressing TRAIL-R2
T2 construct: we used BJAB, HCT116 and Jurkat that express a natural level of TRAIL-R2 receptors; endogenous in cells; host or cells: HCT116
Protocol: The adherent cells HCT116-TRAIL-R2-DEF and HCT116 cells were directly plated on glass slides (Ø20 mm) (10^6 cells/well). The cells in suspension (BJAB and BJAB-TRAIL-R2-DEF) were covalently adhered to glass slides coated with poly-L-lysine (0.1% v/v) (Sigma Aldrich, Saint Louis, MO, USA). The adhesion was strong enough for measurement during 10h. After 24 hours, the slides were fixed with superglue at different locations of a Petri dish, which was inserted in the LigandTracer Green instrument (Ridgeview Instrument AB, Uppsala, Sweden). An empty spot or empty glass slide fixed to the Petri dish was used to record the background signal. This set-up allowed the simultaneous monitoring of the binding of a given peptide to different cell-carrying glass slides fixed to the dish. […] The fluorescence signal is recorded over time when the slide is out of the solution, and therefore corresponds to the amount of bound peptide. […]
Double-referenced SPR binding curves sets were fitted globally using the BIAevaluation 4.1.1 (GE Healthcare Biacore) or TraceDrawer (Ridgeview Diagnostics AB, Uppsala, Sweden) softwares. The signal recorded with the LigandTracer on an empty spot or slide was subtracted from that recorded on cell-carrying slides. The resulting binding curves were analyzed by kinetic distribution analysis using the tool Interaction Map (Ridgeview Diagnostics AB, Uppsala, Sweden). […]

TRAIL-R2 on BJAB cells = biological target: T3, TRAIL-R2 on BJAB cells (Homo sapiens, UniProt O14763); test: Flow cytometry staining with fluorescent peptides, BJAB; assay type: binding
T3 construct: expressed in transfected cells
Protocol: (§3) 10^6 cells were washed in PBS containing 2% FCS and then incubated at 4° C for 30 min with an anti-TRAIL-R2 antibody (clone BK9 Diaclone, Besançon, France) according to concentration recommended by the manufacturer or with fluorescent peptides at the concentration of 1 µM. After two washes in PBS-2% FBS, TRAIL-R2 expression was monitored by flow cytometry (Guava easyCyte™, Merck Milipore, Darmstadt, Germany) and data were analyzed with InCyte Software (Merck Milipore).

TRAIL-R2 on HCT116 cells = biological target: T4, TRAIL-R2 on HCT116 cells (Homo sapiens, UniProt O14763); test: Flow cytometry staining with fluorescent peptides, HCT116; assay type: binding
T4 construct: we used BJAB, HCT116 and Jurkat that express a natural level of TRAIL-R2 receptors; endogenous in cells; host or cells: HCT116
Protocol: as §3

[2] = biological target: TRAIL-R2 expressed on BJAB cells (Homo sapiens, UniProt O14763); test: LigandTracer real time binding on living BJAB cells; design: expressed in transfected cells
Protocol: The adherent cells HCT116-TRAIL-R2-DEF and HCT116 cells were directly plated on glass slides (Ø20 mm) (10^6 cells/well). The cells in suspension (BJAB and BJAB-TRAIL-R2-DEF) were covalently adhered to glass slides coated with poly-L-lysine (0.1% v/v) (Sigma Aldrich, Saint Louis, MO, USA). The adhesion was strong enough for measurement during 10h. After 24 hours, the slides were fixed with superglue at different locations of a Petri dish, which was inserted in the LigandTracer Green instrument (Ridgeview Instrument AB, Uppsala, Sweden). An empty spot or empty glass slide fixed to the Petri dish was used to record the background signal. This set-up allowed the simultaneous monitoring of the binding of a given peptide to different cell-carrying glass slides fixed to the dish. Three mL of solution (culture medium without or with fluorescent peptide) were added to the dish. In the LigandTracer instrument, the dish is tilted and rotates. Consequently the 3 mL solution covers only the lower part of the dish and each cell-carrying slide is alternatively in contact and out of contact with the solution (at intervals of 8 to 16 s). The fluorescence signal is recorded over time when the slide is out of the solution, and therefore corresponds to the amount of bound peptide. The solution in the dish was initially the culture medium (∼30 min) to provide a stable base line. The fluorescent peptide was then added in increasing doses (10, 30 and 90 nM) every two to three hours. Finally the peptide-containing sample was replaced with fresh medium and the dissociation of the peptide from the cells was followed overnight. The measurements were conducted at room temperature (approximately 20° C).
as §1

TRAIL-R2 expressed on BJAB cells, sequence (O14763 56-440): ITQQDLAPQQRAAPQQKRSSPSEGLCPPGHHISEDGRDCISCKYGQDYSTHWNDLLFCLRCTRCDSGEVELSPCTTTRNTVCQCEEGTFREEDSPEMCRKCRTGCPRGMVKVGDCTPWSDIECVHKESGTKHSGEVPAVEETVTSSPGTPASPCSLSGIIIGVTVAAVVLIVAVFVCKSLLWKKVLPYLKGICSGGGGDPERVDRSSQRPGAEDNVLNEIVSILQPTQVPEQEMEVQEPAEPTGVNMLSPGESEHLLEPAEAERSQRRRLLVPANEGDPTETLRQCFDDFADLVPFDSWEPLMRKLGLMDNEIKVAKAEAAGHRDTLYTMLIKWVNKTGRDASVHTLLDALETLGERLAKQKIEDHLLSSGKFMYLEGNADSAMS
T1 sequence (O14763 56-440): as above
T3 sequence (O14763 56-440): as above
T4 sequence (O14763 56-440): as above
T2 sequence (O14763 56-440): as above

Row | SMILES | koff (human TRAIL-R2) [s⁻¹] | kon (human TRAIL-R2) [M⁻¹ s⁻¹] | apoptosis induction in BJAB cells (BJAB cells) | apoptosis induction in HCT116 cells (HCT116 cells) | cell surface binding [1] | binding by flow cytometry (TRAIL-R2 on BJAB cells; BJAB cells deficient for TRAIL-R2, peptide 1 µM) | binding by flow cytometry (TRAIL-R2 on BJAB cells; BJAB cells expressing TRAIL-R2, peptide 1 µM) | binding by flow cytometry (TRAIL-R2 on HCT116 cells; HCT116 cells deficient for TRAIL-R2, peptide 1 µM) | binding by flow cytometry (TRAIL-R2 on HCT116 cells; HCT116 cells expressing TRAIL-R2, peptide 1 µM) | cell surface binding ([2]; BJAB cells deficient for TRAIL-R2) | cell surface binding ([2]; BJAB cells expressing TRAIL-R2) | fluorescent signal reached ([2]; BJAB cells that expressed TRAIL-R2, 10, 30 and (f1d) 90 nM)
1 | CC[C@H](C)[C@@H]1NC(=O)[C@H](CCCNC(=N)N)NC(=O)[C@H](CC(N)=O)NC(=O)[C@H](CC(=O)O)NC(=O)[C@H](CC(C)C)NC(=O)[C@@H](NC(=O)[C@H](CC(=O)O)NC(=O)[C@H](Cc2c[nH]c3ccccc23)NC(C)=O)CSSC[C@@H](C(=O)N[C@H](C(=O)N[C@@H](CCCNC(=N)N)C(=O)N[C@@H](CC(C)C)C(N)=O)C(C)C)NC(=O)[C@H](CCC(N)=O)NC(=O)[C@H](CCCNC(=N)N)NC(=O)[C@H](CCCCN)NC(=O)CNC1=O [2m] (Ac-WDCLDNRIGKRQCVRL-NH2; disulfide 3-13; N-terminus and C-terminus assumed) | 0.016 | 3600 |  |  |  |  |  |  |  |  |  | 
2 | CC[C@H](C)[C@@H]1NC(=O)[C@H](CCCNC(=N)N)NC(=O)[C@H](CC(N)=O)NC(=O)[C@H](CC(=O)O)NC(=O)[C@H](CC(C)C)NC(=O)[C@@H](NC(=O)[C@H](CC(=O)O)NC(=O)[C@H](Cc2c[nH]c3ccccc23)NC(C)=O)CSSC[C@@H](C(=O)N[C@H](C(=O)N[C@@H](CCCCNC(=O)CCC(CCC(=O)NCCCC[C@H](NC(=O)[C@@H](NC(=O)[C@@H]2CSSC[C@H](NC(=O)[C@H](CC(=O)O)NC(=O)[C@H](Cc3c[nH]c4ccccc34)NC(C)=O)C(=O)N[C@@H](CC(C)C)C(=O)N[C@@H](CC(=O)O)C(=O)N[C@@H](CC(N)=O)C(=O)N[C@@H](CCCNC(=N)N)C(=O)N[C@@H]([C@@H](C)CC)C(=O)NCC(=O)N[C@@H](CCCNC(=N)N)C(=O)N[C@@H](CCCNC(=N)N)C(=O)N[C@@H](CCC(N)=O)C(=O)N2)C(C)C)C(=O)N[C@@H](CC(C)C)C(N)=O)NC(=O)CCCN(C)C(=O)c2ccccc2-c2c3ccc(=N)c(S(=O)(=O)O)c-3oc3c(S(=O)(=O)O)c(N)ccc23)C(=O)N[C@@H](CC(C)C)C(N)=O)C(C)C)NC(=O)[C@H](CCC(N)=O)NC(=O)[C@H](CCCNC(=N)N)NC(=O)[C@H](CCCNC(=N)N)NC(=O)CNC1=O (stereo partly drawn) [f1d] (I: Ac-WDCLDNRIGRRQCVKL-NH2 / II: Ac-WDCLDNRIGRRQCVKL-NH2; disulfide I:3-I:13, II:3-II:13; linker I:15-II:15 via X1; N-terminus and C-terminus assumed) | 0.0014 | 22000 | induced apoptosis | scarcely induced their apoptosis | bound weakly | not | bound | not | bound | weak signals | strong binding | > 25
3 | CC[C@H](C)[C@@H]1NC(=O)[C@H](CCCNC(=N)N)NC(=O)[C@H](CC(N)=O)NC(=O)[C@H](CC(=O)O)NC(=O)[C@H](CC(C)C)NC(=O)[C@@H](NC(=O)[C@H](CC(=O)O)NC(=O)[C@H](Cc2c[nH]c3ccccc23)NC(C)=O)CSSC[C@@H](C(=O)N[C@H](C(=O)N[C@@H](CCCCNC(=O)c2ccc(C(=O)O)c(-c3c4ccc(=N)c(S(=O)(=O)O)c-4oc4c(S(=O)(=O)O)c(N)ccc34)c2)C(=O)N[C@@H](CC(C)C)C(N)=O)C(C)C)NC(=O)[C@H](CCC(N)=O)NC(=O)[C@H](CCCNC(=N)N)NC(=O)[C@H](CCCNC(=N)N)NC(=O)CNC1=O [f1m] (Ac-WDCLDNRIGRRQCVK(X3)L-NH2; disulfide 3-13; N-terminus and C-terminus assumed) | 0.0014 | 14000 | did not induce apoptosis |  |  |  |  |  |  |  | weak binding | 
